Consider one compound from patent US20140080704A1, “SUBSTITUTED VINYL AND ALKINYL CYCLOHEXENOLS AS ACTIVE AGENTS AGAINST ABIOTIC STRESS IN PLANTS” (priority 2011, published 2014).

Some results are limits rather than exact numbers.

One assay concerns BRSNS (Brassica napus). As to the kind of experiment: Drought stress test on greenhouse crop plants, spray application, efficacy EF (BRSNS). It is filed as in vivo. Particulars: dosage 25 g/ha, 600 l/ha water, mean of three results. How it is done: (§1) Seeds of monocotyledonous and dicotyledonous crop plants were laid out in sandy loam in wood-fiber pots, covered with soil and cultivated in a greenhouse under good growth conditions. The test plants were treated at the early leaf stage (BBCH10-BBCH13). To ensure uniform water supply before commencement of stress, the potted plants were supplied with the maximum amount of water immediately beforehand by dam irrigation and, after application, transferred in plastic inserts in order to prevent subsequent, excessively rapid drying. The inventive compounds, formulated in the form of wettable powders (WP), wettable granules (WG), suspension concentrates (SC) or emulsion concentrates (EC), were sprayed onto the green parts of the plants as an aqueous suspension at an equivalent water application rate of 600 l/ha with addition of 0.2% wetting agent (agrotin). Substance application is followed immediately by stress treatment of the plants (cold or drought stress). For cold stress treatment, the plants were kept under the following controlled conditions: • “day”: 12 hours with illumination at 8° C. • “night”: 12 hours without illumination at 1° C. […] The intensity of damage was first assessed as a percentage (100%=plants have died, 0%=like control plants). […]

A further assay relates to ZEAMX (Zea mays). As to the kind of experiment: Drought stress test on greenhouse crop plants, spray application, efficacy EF (ZEAMX). It is filed as in vivo. Conditions: dosage 25 g/ha, 600 l/ha water, mean of three results. How it is done: as §1

As for `CC1=CC(=O)C2CC2(C)C1(O)C#CC1=CC(=O)OC1` (centres unmarked) [I.4-54, 4-[(2-hydroxy-1,3-dimethyl-5-oxobicyclo[4.1.0]hept-3-en-2-yl)ethynyl]furan-2(5H)-one], the “EF (BRSNS): efficacy = percentage reduction in the intensity of damage” value with BRSNS (Brassica napus) is listed as above 5%. Moreover, the “EF (ZEAMX): efficacy = percentage reduction in the intensity of damage” value with ZEAMX (Zea mays) is on record as above 5%.
